Like-named read-outs stand apart in the source and are kept apart here.

One assay has as its target human α2BRs (Homo sapiens, UniProt P18089). Particulars: 10 μM screen.
The target of another assay is T1, α1AR (Homo sapiens, UniProt P35348).
T1 sequence (P35348 1-466): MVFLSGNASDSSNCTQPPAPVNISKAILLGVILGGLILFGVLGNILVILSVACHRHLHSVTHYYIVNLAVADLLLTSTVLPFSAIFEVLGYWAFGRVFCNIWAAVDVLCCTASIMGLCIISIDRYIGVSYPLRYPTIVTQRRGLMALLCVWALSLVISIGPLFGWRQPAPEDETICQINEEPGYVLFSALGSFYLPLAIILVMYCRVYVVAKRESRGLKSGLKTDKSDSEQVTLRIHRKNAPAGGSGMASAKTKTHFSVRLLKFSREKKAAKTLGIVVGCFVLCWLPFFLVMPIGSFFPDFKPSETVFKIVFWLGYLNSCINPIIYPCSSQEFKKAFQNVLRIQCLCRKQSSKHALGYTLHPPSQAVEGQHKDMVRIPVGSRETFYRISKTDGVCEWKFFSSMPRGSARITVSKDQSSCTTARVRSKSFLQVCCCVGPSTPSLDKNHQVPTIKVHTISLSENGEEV

For assay [1], the system named is pERK in nontransfected HEK293 cells. Nature of the assay: ERK phosphorylation in nontransfected, knockout and antagonist-cotreated HEK293 cells. The format is cell-based, human. The method, then: Cells were serum-starved for 75 min and treated with ligands in 1 mL of fresh DMEM in the absence of serum as described in the figure legends. Cells were washed three times with ice-cold phosphate-buffered saline, lysed on ice in Radio-Immunoprecipitation Assay buffer, centrifuged to clarify the supernatant, normalized to protein concentration, and boiled in Laemmli sample buffer. Following sodium dodecyl sulfate–polyacrylamide gel electrophoresis, gels were transferred, blocked in 5% BSA and incubated with 1:1000 rabbit phospho-ERK1/2 (#9101, Cell Signaling Technology, Danvers, MA) and imaged with enhanced chemiluminescence (ECL). Blots were stripped and reprobed with rabbit ERK1/2 (#9102, Cell Signaling Technology) antibody and imaged with ECL to assess protein loading.

human α2BRs, sequence (P18089 whole entry): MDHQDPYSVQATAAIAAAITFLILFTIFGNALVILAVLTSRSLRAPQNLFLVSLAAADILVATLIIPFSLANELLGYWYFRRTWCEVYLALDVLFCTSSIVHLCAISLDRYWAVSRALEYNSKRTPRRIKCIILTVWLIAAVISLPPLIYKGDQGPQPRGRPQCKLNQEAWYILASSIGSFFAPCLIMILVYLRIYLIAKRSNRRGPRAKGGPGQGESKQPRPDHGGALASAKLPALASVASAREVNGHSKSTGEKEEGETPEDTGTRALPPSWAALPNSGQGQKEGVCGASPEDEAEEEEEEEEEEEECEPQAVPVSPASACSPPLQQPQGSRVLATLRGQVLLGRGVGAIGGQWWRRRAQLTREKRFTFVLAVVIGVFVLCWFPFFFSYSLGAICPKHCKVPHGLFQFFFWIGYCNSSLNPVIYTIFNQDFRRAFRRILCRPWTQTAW

By EC50 is commonly meant the concentration at which the effect is half-maximal. As to mitragynine, the “Activation of Gαi/o subtypes coupled to α2BRs” value on human α2BRs was “no significant activity”. In addition, the EC50 at α1AR (read-out: EC50, α11, α1AR-Gα11) is 3.16 µM; on α1AR (read-out: EC50 at α1AR-Gα11 (abstract), partial agonist), about 3 µM. The “Emax as percent of clonidine's maximum response, α11” value on α1AR (α1AR-Gα11) worked out at 27%. For the same substance, the “EC50, αq” value at α1AR (α1AR-Gαq) is “inactive”. Moreover, the “pERK-stimulating effect in Gαq/11 knockout HEK293 cells” value in assay [1] (1 μM, 5 min, vs CRISPR scrambled) was “abolished”. Also, in assay [1] (HEK293), the “pERK-stimulating effect with 100 nM atipamezole cotreatment” value is listed as “did not affect”. In addition, the “pERK-stimulating effect with 100 nM prazosin cotreatment” value in assay [1] (HEK293, CLON and ISO 1 μM, mitragynine 1 μM) is given as “abolished”.

The values above are taken from publication PMC12679550 (ACS Chemical Neuroscience, 2025).
